Assay: gradient 5% acetonitrile 3 min, to 50% in 2 min, to 85% in 15 min, held 3 min, 100 µL/min
Conditions: column: Zorbax Extend-C18 2.1 x 50 mm; eluents: water / acetonitrile, 0.1% formic acid
Method in brief: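 Retention times come from adduct peaks that were picked computationally and then checked by hand. The standards, pure and pooled in mixtures of ~100 molecules, were run on a Zorbax Extend-C18 column (2.1 × 50 mm, 1.8 μm) at 100 μL/min with water and acetonitrile, each with 0.1% formic acid. Detection was by quadrupole time-of-flight mass spectrometry in positive and negative ionization mode, with a dead volume of 40 μL and a dwell volume of 900 μL.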

Structure (SMILES) | RP-LC retention time
Cc1oc2ncnc(N3CCCC(C(=O)N4CCC(C(N)=O)CC4)C3)c2c1C (centres undefined) | 620 s
COC(=O)c1cccc(NC(=O)N2CCSc3ncccc32)c1 | 739 s
CN1CCC(OC2CCN(C(=O)c3ccc(Cl)s3)CC2)CC1 | 609 s
Cc1cccc2nnc(N3CCCC(C(=O)N4CCN(C5CCCCC5)CC4)C3)n12 (centres undefined) | 570 s
O=C(CSc1nnc(C2COc3ccccc3O2)o1)NCc1ccco1 (centres undefined) | 648 s
CCOc1ccc(NC(=O)CCC2CCCN(c3cc(NC4CC4)ncn3)C2)cc1 (centres undefined) | 692 s
C=CCCC1(C2=CCCCC2)C(=O)NC(=O)NC1=O | 804 s
Cc1ncc2c(n1)C[C@@H]1CC[C@H]2N1S(=O)(=O)Cc1ccccc1 | 706 s
Cc1ccc(C)c(NC(=O)C2CCc3nc(N4CCOCC4)ncc3C2)c1 (centres undefined) | 753 s
CCOC(=O)c1ccccc1NC(=O)N(Cc1cccs1)C1CCN(CC)CC1 | 756 s
Cc1cc(C)cc(NC(=O)Cn2c(C(C)C)nc3c(c2=O)CCN(Cc2ccccc2)C3)c1 | 759 s
O=C(NCc1nnnn1C1CCCCC1)C1CC1 | 647 s
COCCNc1nc(Nc2ccc(C)c(C)c2)c2nccnc2n1 | 597 s
Cc1ccccc1CNC(=O)CN1C(=O)C(C)(C)c2ccccc21 | 874 s
CCN1CCN(c2nc(F)c(F)c(S(=O)(=O)CCNc3cccc(C(F)(F)F)c3)c2F)CC1 | 731 s
COc1ccc(-c2csc(Nc3cccnc3)n2)cc1 | 656 s
Cc1ccc(NC(=O)Cn2cnc3nc4c(cc3c2=O)CCCC4)c(C)c1 | 734 s
Cc1[nH]c(=O)[nH]c(=O)c1CC(=O)N1CCN(c2cccc(Cl)c2Cl)CC1 | 654 s
Cc1ccc(C)c(Cn2nc3ccc(S(=O)(=O)N4CCCCCC4)cn3c2=O)c1 | 1090 s
COCC(C)Nc1ncnc2c1cnn2-c1cccc(Cl)c1 (centres undefined) | 925 s
C=CCNC(=O)c1cc(C)nc2c(C)cc(C)cc12 | 644 s
C=CCN1CC(=O)N2Cc3[nH]c4ccccc4c3C[C@H]2C1=O | 708 s
CCc1noc(CN2N=C(C(=O)N3CCC(C)CC3)S(=O)(=O)c3ccc(C)cc32)n1 | 954 s

Continued, values first:

RP-LC retention time | Structure (SMILES)
1250 s | O=C(NC1(c2nc(-c3ccccc3)no2)CCCCC1)c1ccc(C(F)(F)F)cc1
585 s | O=C(Cn1c(=O)n(-c2ccccc2)c2ncccc21)NCCN1CCCCC1
738 s | CSc1ccccc1C(=O)Nc1ccc(CC(=O)NCC(F)(F)F)cc1
624 s | Cc1cccc(NC(=O)CC(=O)Nc2ccc3nc4n(c(=O)c3c2)CCCCC4)n1
1140 s | CCOc1ccccc1-c1noc(Cn2c(=O)n(C(C)CC)c(=O)c3ccccc32)n1 (centres undefined)
664 s | O=C(Nc1ccc2c(N3CCCCC3)ncnc2c1)c1cncc(Br)c1
603 s | CCC(=O)NCc1nc2c(n1CC)CN(C(=O)c1cccc(C(F)(F)F)c1)CC2
1120 s | CC(C)c1ccc(NC(=O)Cn2c(=O)cc(-c3nc(C4CC4)no3)c3ccccc32)cc1
930 s | CN(Cc1ccccc1)c1ccc(-c2noc(CN3CCSCC3)n2)cn1
604 s | CC(C)NC(=O)c1ccc2nc(-c3ccccc3)cn2c1
941 s | O=C(c1nccnc1-c1nc2ccccc2s1)N1CCc2ccccc21
738 s | O=C(COc1ccc(Cl)cc1Cl)Nc1c(-c2ccccc2)nc2ccccn12
723 s | Cc1ccc(-c2cn3cccnc3n2)cc1NC(=O)c1cccc(Br)c1
756 s | O=C(NCc1ccco1)c1cccc(Nc2c(-c3ccccc3)nc3cnccn23)c1
683 s | O=C(c1cccnc1)N1CCc2cc(-c3ccno3)ccc21
817 s | O=C(NCc1cnoc1-c1ccc(F)cc1)c1c(F)cccc1F
630 s | CCCN1CCN(C(=O)c2ccc(S(=O)(=O)c3ccccc3)s2)CC1
659 s | O=C(Nc1ccc2nncn2c1)Nc1ccccc1F
957 s | O=C(c1ccc(Cl)cc1)N1CCN(c2ccc([N+](=O)[O-])c3ncccc23)CC1
866 s | CC(CNC(=O)CC1CCN(S(=O)(=O)c2ccccc2)CC1)c1ccccc1 (centres undefined)
846 s | CC(NC(=O)c1ccc(N(C)C)cc1)C(=O)N1CCCc2ccccc21 (centres undefined)

Reference: the METLIN SMRT retention time set (Domingo-Almenara et al. 2019)
